We go through 54 molecules from ChEMBL document CHEMBL4842348 (J Med Chem, 2021).

Broadly, the logD is the decadic logarithm of the distribution of all forms, ionised or not, between an organic phase and buffer at a given pH. Low readings indicate a more hydrophilic compound, high ones a more lipophilic compound. One may read the solubility (thermodynamic) as solubility found after equilibrating the solid with the medium.

≈ marks a conversion by molar mass, not a printed value.

Series [1] can be described thus: Lipophilicity, logD of the compound at pH 7.3 by HPLC analysis. The class given is physicochemical. Conditions: buffer.
Series [2] can be described thus: Solubility of the compound in pH 7 phosphate buffer by shake-flask method. Type of series: physicochemical.

Consider `COc1cc(F)c(C(C)C)cc1-c1ccc(C(F)(F)F)cc1[C@@H]1CC[C@H]2[C@@H](c3cc(C(F)(F)F)cc(C(F)(F)F)c3)OC(=O)N12`, for which the logD in series [1] was 7.1.
Same read-out and setting: in the case of `COc1cc(F)c(C(C)C)cc1-c1ccc(C(F)(F)F)cc1[C@@H]1CC[C@H]2[C@@H](c3cc(C)cc(C(F)(F)F)c3)OC(=O)N12` it was 7.
Still for that read-out and setting: in the case of `COc1cc(F)c(C(C)C)cc1-c1ccc(C(F)(F)F)cc1[C@@H]1CC[C@H]2[C@@H](c3cc(F)cc(C(F)(F)F)c3)OC(=O)N12` it was 6.3; in that of `COc1cc(F)c(C(C)C)cc1-c1ccc(C(F)(F)F)cc1[C@@H]1CC[C@H]2[C@@H](c3cccc(C(F)(F)F)c3)OC(=O)N12`, 6.1; in that of `COc1cc(F)c(C(C)C)cc1-c1ccc(C(F)(F)F)cc1[C@@H]1CC[C@H]2[C@@H](c3cc(Cl)cc(Cl)c3)OC(=O)N12`, 6.1.
On the same count and under the same terms, the figure for `COc1cc(F)c(C(C)C)cc1-c1ccc(C(F)(F)F)cc1[C@@H]1CC[C@H]2[C@@H](c3cc(Cl)cc(C(F)(F)F)c3)OC(=O)N12` is 6.5; for `COc1cc(F)c(C(C)C)cc1-c1cnc(N(C)C)cc1[C@@H]1CC[C@H]2[C@@H](c3cc(C(F)(F)F)cc(C(F)(F)F)c3)OC(=O)N12` it is 7; for `COc1ccc(-c2ccc(C(=O)O)cc2C)cc1-c1cnc(N(C)C)cc1[C@@H]1CC[C@H]2[C@@H](c3cc(C(F)(F)F)cc(C(F)(F)F)c3)OC(=O)N12` it is 4.6.
Regarding `COc1cc(F)c(C(C)C)cc1-c1ccc(F)cc1[C@@H]1CC[C@H]2[C@@H](c3cc(C(F)(F)F)cc(C(F)(F)F)c3)OC(=O)N12`, the log distribution coefficient (logD) in series [1] stood at 7.
The same measure, in the same setting: in the case of `COc1ccc(-c2ccc(C(=O)O)cc2C)cc1-c1ccc(N(C)C)nc1[C@@H]1CC[C@H]2[C@@H](c3cc(C(F)(F)F)cc(C(F)(F)F)c3)OC(=O)N12` it was 5.8; in that of `COc1cc(F)c(C(C)C)cc1-c1ccc(N(C)C)nc1[C@@H]1CC[C@H]2[C@@H](c3cc(C(F)(F)F)cc(C(F)(F)F)c3)OC(=O)N12`, 6.9.
Still for that read-out and setting: the figure for `COc1cc(F)c(C(C)C)cc1-c1cnc(N(C)C)nc1[C@@H]1CC[C@H]2[C@@H](c3cc(C(F)(F)F)cc(C(F)(F)F)c3)OC(=O)N12` is 7.
Same read-out and setting: in the case of `COc1ncc(-c2ccc(C(=O)O)cc2C)cc1-c1cnc(C(F)(F)F)cc1[C@@H]1CC[C@H]2[C@@H](c3cc(C(F)(F)F)cc(C(F)(F)F)c3)OC(=O)N12` it was 4.6.
In the case of `COc1ccc([C@H]2CC[C@H](C(=O)O)CC2)cc1-c1ccc(C(F)(F)F)cc1[C@@H]1CC[C@H]2[C@@H](c3cc(C(F)(F)F)cc(C(F)(F)F)c3)OC(=O)N12`, the logD in series [1] was 5.6.
Still for that read-out and setting: in the case of `COc1ccc([C@@H]2C[C@@H](O)[C@@H](O)C2)cc1-c1ccc(C(F)(F)F)cc1[C@@H]1CC[C@H]2[C@@H](c3cc(C(F)(F)F)cc(C(F)(F)F)c3)OC(=O)N12` it was 5.7; in that of `COc1cc(F)c(-c2ccc(C(=O)O)cc2C)cc1-c1cc(C)c(C(F)(F)F)cc1[C@@H]1CC[C@H]2[C@@H](c3cc(C(F)(F)F)cc(C(F)(F)F)c3)OC(=O)N12`, 6; in that of `COc1ncc(-c2ccc(C(=O)O)cc2C)cc1-c1cc(C)c(C(F)(F)F)cc1[C@@H]1CC[C@H]2[C@@H](c3cc(C(F)(F)F)cc(C(F)(F)F)c3)OC(=O)N12`, 5.8.
Same read-out and setting: the figure for `COc1ccc(-c2ccc(C(=O)O)cc2C)cc1-c1c(C)cc(C(F)(F)F)cc1[C@@H]1CC[C@H]2[C@@H](c3cc(C(F)(F)F)cc(C(F)(F)F)c3)OC(=O)N12` is 6; for `COc1ncc(-c2ccc(C(=O)O)cc2C)cc1-c1ccc(C(F)(F)F)cc1[C@@H]1CC[C@H]2[C@@H](c3cc(F)cc(C(F)(F)F)c3)OC(=O)N12` it is 5; for `COc1ncc(-c2ccc(C(=O)O)cc2C)cc1-c1c(C)cc(C(F)(F)F)cc1[C@@H]1CC[C@H]2[C@@H](c3cc(C(F)(F)F)cc(C(F)(F)F)c3)OC(=O)N12` it is 5.7.
On the same count and under the same terms, in the case of `COc1ccc(-c2c(C)cc(C(=O)O)cc2C)cc1-c1ncc(C(F)(F)F)cc1[C@@H]1CC[C@H]2[C@@H](c3cc(C(F)(F)F)cc(C(F)(F)F)c3)OC(=O)N12` it was 4.8; in that of `COc1ncc(-c2ccc(C(=O)O)cc2C)cc1-c1ncc(C(F)(F)F)cc1[C@@H]1CC[C@H]2[C@@H](c3cc(C(F)(F)F)cc(C(F)(F)F)c3)OC(=O)N12`, 4.5.
Molecule `COc1ncc(-c2c(C)cc(C(=O)O)cc2C)cc1-c1ccc(C(F)(F)F)nc1[C@@H]1CC[C@H]2[C@@H](c3cc(C(F)(F)F)cc(C(F)(F)F)c3)OC(=O)N12` displayed a pH-dependent lipophilicity (logD) in series [1] of 5.8.
The same measure, in the same setting: in the case of `COc1ncc(-c2ccc(C(=O)O)cc2C)cc1-c1ccc(C(F)(F)F)cc1[C@@H]1CC[C@H]2[C@@H](c3cccc(C(F)(F)F)c3)OC(=O)N12` it was 4.7.
On to `COc1cc(F)c(-c2ccc(-c3nnc(N)o3)cc2C)cc1-c1ccc(C(F)(F)F)cc1[C@@H]1CC[C@H]2[C@@H](c3cc(C)cc(C(F)(F)F)c3)OC(=O)N12`, for which the log distribution coefficient (logD) in series [1] came to 6.6.
As for `COc1ccc([C@H]2C[C@H](C(=O)O)C2)cc1-c1ccc(C(F)(F)F)cc1[C@@H]1CC[C@H]2[C@@H](c3cc(C(F)(F)F)cc(C(F)(F)F)c3)OC(=O)N12`, the logD in series [1] was 5.1.
Still for that read-out and setting: in the case of `COc1ccc(C2CNC(=O)OC2(C)C)cc1-c1ccc(C(F)(F)F)cc1[C@@H]1CC[C@H]2[C@@H](c3cc(C(F)(F)F)cc(C(F)(F)F)c3)OC(=O)N12` (stereo not given in full) it was 5.7; in that of `COc1ccc(-c2ccc(C(=O)O)cc2C)cc1-c1cnc(N(C)C)nc1CN1C(=O)O[C@H](c2cncc(C(F)(F)F)c2)[C@@H]1C`, 3.3; in that of `CCc1ncc(-c2cc(-c3ccc(C(=O)O)cc3C)ccc2OC)c(CN2C(=O)O[C@H](c3cc(C(F)(F)F)cc(C(F)(F)F)c3)[C@@H]2C)n1`, 4.5.
Take `COc1ccc(CCC(=O)O)cc1-c1ccc(C(F)(F)F)cc1[C@@H]1CC[C@H]2[C@@H](c3cc(C(F)(F)F)cc(C(F)(F)F)c3)OC(=O)N12`: the log distribution coefficient (logD) in series [1] came to 4.7.
The same measure, in the same setting: in the case of `COc1ccc(-c2ccc(C(=O)O)cc2C)cc1-c1cnc(N(C)C)nc1CN1C(=O)O[C@H](c2cc(F)cc(F)c2)[C@@H]1C` it was 3.8; in that of `COc1ccc(-c2ccc(C(=O)O)cc2C)cc1-c1cnc(N2CCCC2)nc1CN1C(=O)O[C@H](c2cc(C(F)(F)F)cc(C(F)(F)F)c2)[C@@H]1C`, 5.2.
The same measure, in the same setting: the figure for `COc1ccc(-c2ccc(C(=O)O)cc2C)cc1-c1cnc(N(C)C)nc1CN1C(=O)O[C@H](c2ccc(OC(F)(F)F)cc2)[C@@H]1C` is 4.3; for `COc1ncc(-c2ccc(C(=O)O)cc2C)cc1-c1ccc(C(F)(F)F)cc1CN1C(=O)O[C@H](c2cc(C(F)(F)F)cc(C(F)(F)F)c2)[C@@H]1C` it is 5.4.
In turn, `COc1ccc(-c2ccc(C(=O)O)cc2C)cc1-c1ccc(C(F)(F)F)nc1CN1C(=O)O[C@H](c2cc(C(F)(F)F)cc(C(F)(F)F)c2)[C@@H]1C` came in with a log distribution coefficient (logD) in series [1] of 5.3. In series [2], this molecule registered a thermodynamic solubility of 29 µM (≈ 20.7 µg/mL).
Take `COc1ncc(-c2ccc(C(=O)O)cc2C)cc1-c1cnc(C(F)(F)F)nc1CN1C(=O)O[C@H](c2cc(C(F)(F)F)cc(C(F)(F)F)c2)[C@@H]1C`: the logD in series [1] turned out to be 4.9.
Still for that read-out and setting: the figure for `COc1ccc(-c2ccc(C(=O)O)cc2C)cc1-c1cnc(N(C)C)nc1CN1C(=O)O[C@H](c2cc(Cl)cc(C(F)(F)F)c2)[C@@H]1C` is 4.6.
Still for that read-out and setting: the figure for `COc1cc(F)c(-c2ccc(C(=O)O)cc2C)cc1-c1ccc(C(F)(F)F)cc1[C@@H]1CC[C@H]2[C@@H](c3cc(F)cc(C(F)(F)F)c3)OC(=O)N12` is 5.1.
Same read-out and setting: in the case of `COc1cc(F)c(-c2ccc(C(=O)O)cc2C)cc1-c1cnc(C2CC2)cc1[C@@H]1CC[C@H]2[C@@H](c3cc(C(F)(F)F)cc(C(F)(F)F)c3)OC(=O)N12` it was 4.8; in that of `COc1ccc([C@H]2CCC(=O)N[C@@H]2C)cc1-c1ccc(C(F)(F)F)cc1[C@@H]1CC[C@H]2[C@@H](c3cc(C(F)(F)F)cc(C(F)(F)F)c3)OC(=O)N12`, 5.9.
`COc1ccc(-c2ccc(C(=O)O)cc2C)cc1-c1cnc(C(F)(F)F)cc1[C@@H]1CC[C@H]2[C@@H](c3cc(C(F)(F)F)cc(C(F)(F)F)c3)OC(=O)N12` registered a logD in series [1] of 4.8.
The same measure, in the same setting: in the case of `COc1ccc(-c2ccc(C(=O)O)cc2C)cc1-c1cnc(N(C)C)nc1CN1C(=O)O[C@H](c2ccnc(C(F)(F)F)c2)[C@@H]1C` it was 3.2; in that of `COc1ccc(C(C)CC(=O)O)cc1-c1ccc(C(F)(F)F)cc1[C@@H]1CC[C@H]2[C@@H](c3cc(C(F)(F)F)cc(C(F)(F)F)c3)OC(=O)N12` (stereo not given in full), 5.
Still for that read-out and setting: in the case of `COc1ccc(-c2ccc(C(=O)O)cc2C)cc1-c1cnc(N(C)C)nc1CN1C(=O)O[C@H](c2cccc(Cl)c2)[C@@H]1C` it was 4.
Still for that read-out and setting: in the case of `COc1ccc(-c2ccc(C(=O)O)cc2C)cc1-c1cnc(N2CCOCC2)nc1CN1C(=O)O[C@H](c2cc(C(F)(F)F)cc(C(F)(F)F)c2)[C@@H]1C` it was 4.8; in that of `COc1ccc(-c2ccc(C(=O)O)cc2C)cc1-c1cnc(N(C)C)nc1CN1C(=O)O[C@H](c2cccc(OC(F)(F)F)c2)[C@@H]1C`, 4.3; in that of `COc1ccc(-c2ccc(C(=O)O)cc2C)cc1-c1cnc(N(C)C)nc1CN1C(=O)O[C@H](c2cccc(C(F)(F)F)n2)[C@@H]1C`, 3.8.
With `COc1ccc(-c2c(C)cc(C(=O)O)cc2C)cc1-c1ccc(C(F)(F)F)cc1[C@@H]1CC[C@H]2[C@@H](c3cc(C(F)(F)F)cc(C(F)(F)F)c3)OC(=O)N12`, the logD in series [1] came to 5.4.
The molecule `COc1ccc(-c2ccc(C(=O)O)cc2C)cc1-c1ncc(C(F)(F)F)cc1[C@@H]1CC[C@H]2[C@@H](c3cc(C(F)(F)F)cc(C(F)(F)F)c3)OC(=O)N12` gave a logD in series [1] of 4.6.
On the same count and under the same terms, the figure for `COc1ccc(-c2ccc(C(=O)O)cc2C)cc1-c1cnc(C(F)(F)F)cc1CN1C(=O)O[C@H](c2cc(C(F)(F)F)cc(C(F)(F)F)c2)[C@@H]1C` is 4.7.
In series [1], `COc1ccc(-c2ccc(C(=O)O)cc2C)cc1-c1cnc(N(C)C)nc1CN1C(=O)O[C@H](c2cccc(C(F)(F)F)c2)[C@@H]1C` displayed a logD of 4.1.
Same read-out and setting: the figure for `COc1cc(F)c(-c2ccc(C(=O)O)cc2C)cc1-c1ccc(F)cc1[C@@H]1CC[C@H]2[C@@H](c3cc(C(F)(F)F)cc(C(F)(F)F)c3)OC(=O)N12` is 5.1; for `COc1ncc(-c2ccc(C(=O)O)cc2C)cc1-c1cnc(C(F)(F)F)cc1CN1C(=O)O[C@H](c2cc(C(F)(F)F)cc(C(F)(F)F)c2)[C@@H]1C` it is 4.5.
On the same count and under the same terms, the figure for `COc1ccc(-c2ccc(C(=O)O)cc2C)cc1-c1cnc(N(C)C)nc1CN1C(=O)O[C@H](c2cc(Cl)cc(Cl)c2)[C@@H]1C` is 4.6.
